One assay deals with T1, CHK1 kinase (Homo sapiens, UniProt O14757).
T1 construct: purchased Promega V1941
T1 sequence (O14757 1-476): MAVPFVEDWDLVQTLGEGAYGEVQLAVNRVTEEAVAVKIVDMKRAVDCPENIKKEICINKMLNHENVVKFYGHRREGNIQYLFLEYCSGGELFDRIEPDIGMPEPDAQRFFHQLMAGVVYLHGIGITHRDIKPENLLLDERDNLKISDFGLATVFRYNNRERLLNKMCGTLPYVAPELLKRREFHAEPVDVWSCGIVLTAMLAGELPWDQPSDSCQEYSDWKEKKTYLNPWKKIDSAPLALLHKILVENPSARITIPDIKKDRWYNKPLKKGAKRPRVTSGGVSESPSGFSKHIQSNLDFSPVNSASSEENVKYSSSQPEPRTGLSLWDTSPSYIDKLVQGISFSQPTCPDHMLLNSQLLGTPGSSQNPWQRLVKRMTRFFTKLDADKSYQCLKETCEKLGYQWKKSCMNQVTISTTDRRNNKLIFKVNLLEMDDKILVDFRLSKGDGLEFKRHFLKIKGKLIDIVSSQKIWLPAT
The assay can be described thus: CHK1 kinase inhibition, ADP-Glo kinase assay. The following applies: ATP 10 μM, CHK1 1 ng/well; for inhibition at 0.01 µM: compound concentration 10 nM, read-out: Inh % (inhibitory effect on CHK1 kinase activity); for IC50: read-out: IC50 (inhibitory effect on CHK1 kinase activity). Format: biochemical. As for the experimental part:
2 μL of kinase CHK1 (#V1941, Promega), 1 μL of compound diluted with buffer, and 2 μL of ATP substrate was successively added to a 384-well plate (final concentration of CHK1 was 1 ng/well, ATP was 10 μM). The positive control wells contained CHK1, ATP and DMSO whereas the negative control wells contained ATP, DMSO without enzyme. The mixtures were centrifuged at 1000 rpm for 1 minute and kept in darkness at room temperature for 1 hour to react. Then, 5 μL of ADP-Glo reagent was added to each well and incubated at room temperature for 40 minutes. At the end of incubation, 10 μL of kinase detection reagent was added to each well, and the relative chemiluminescence values (RLU) were measured on Varioskan® Flash (Thermo). The following calculation was performed: Inhibition rate %=(RLU of positive control−RLU of compound)/(RLU of positive control−RLU of negative control)×100. Data were analyzed using GraphPad Prism6.0 and fitted using the curve equation: Y=Bottom+(Top-Bottom)/(1+10^((Log IC50−X)*HillSlope)), and IC50 values were calculated.
On the technique in general: ADP-Glo turns the ADP formed in a reaction into a luminescent signal.

The subject of assay [1] is human breast cancer cell HCC1806. The assay can be described thus: Proliferation of HCC1806 cells, MTT assay. Format: cell-based. The following applies: HCC1806, 72 h, 3 days treatment, read-out: IC50 (inhibition of proliferation of HCC1806). As for the experimental part:
Newly revived HCC1806 cells (purchased from Guangzhou Genio) were cultured and passaged for at least three generations before use. Cells were used at 90% confluency for experiments. Cells were digested with trypsinase and centrifuged at 800 rpm for 5 minutes. The cell pellets were resuspended in fresh RPMI1640 medium and cells were counted. Cells were seeded on 96-well cell culture plates at 2000 cells/well and incubated overnight at 37° C., 5% CO2. The stock solutions of the test substances (including the test compounds and the reference compound) were serially diluted to 8 concentrations with DMSO at a ratio of 1:3. Five μL of each of the serially diluted solutions were added to 120 μL of medium (diluted by 25 times) and mixed by shaking. […] The cell culture plates were returned to incubator at 37° C., 5% CO2 for 3 days. At the end of treatment the cell viability was determined by MTT colorimetric assay. Cell culture medium in each well was replaced by 100 μL/well of serum-free fresh medium containing MTT (0.5 mg/mL), and the culture was continued for additional 4 hours.
(§1) Data was analyzed by GraphPad Prism 6.0. The inhibitory effects of compounds on cell proliferation were plotted based on cell viability vs. the logarithm of compound concentration. Cell viability %=(ODcompound−ODbackground)/(ODDMSO−ODbackground)×100.
(In general: Formazan colour is commonly taken as a measure of viable cells.)

Assay [2] concerns human colon cancer cell LoVo. The assay can be described thus: Proliferation of LoVo cells, MTT assay. It counts as cell-based. The following applies: 96 h, 4 days treatment, read-out: IC50 (inhibition of proliferation of LoVo). As for the experimental part: Newly revived LoVo cells (purchased from Shanghai Cell Institute) were cultured and passaged for at least three generations before use. Cells were used at 90% confluence for experiment. Cells were digested with trypsinase and centrifuged at 800 rpm for 5 minutes and the supernatant was discarded. The cell pellets were resuspended in fresh RPMI1640 medium and counted. Cells were seeded on 96-well cell culture plates at 5000 cells/well and incubated overnight at 37° C., 5% CO2. The stock solutions of the test substances (including the test compounds and the reference compound) were serially diluted to 8 concentrations with DMSO at a ratio of 1:3. 5 μL of each series diluted solutions was added to 120 μL of medium (diluted by 25 times) and mixed by shaking. […] The cell culture plates were returned to incubator at 37° C. and 5% CO2 for 4 days. At the end of treatment, the cell viability was determined by MTT colorimetric assay. Cell culture medium in each well was replaced by 100 μL/well of serum-free DMEM medium containing MTT (0.5 mg/mL), and the culture was continued for additional 4 hours. Medium was then discarded and 100 μL/well of DMSO was added.
as §1

Consider 17 compounds from patent US12492197B2, “3,5-disubstituted pyrazole compounds as kinase inhibitors and uses thereof” (IMPACT THERAPEUTICS (SHANGHAI), INC, priority 2019, dated 2025).

Each structure is given as a SMILES string.

In the case of `COc1cccc(OC[C@H]2CCCN(C)C2)c1-c1cc(Nc2cnc(C#N)cn2)n[nH]1` [Example 32, (S)-5-((5-(2-methoxy-6-((1-methylpiperidin-3-yl)methoxy)phenyl)-1H-pyrazol-3-yl)amino)pyrazine-2-carbonitrile], the inhibition at 0.01 µM on CHK1 kinase came to 91%. For the same compound, the figures for the IC50 in assay [1] and in assay [2] were 31.7 nM and 25.6 nM, respectively.

Regarding `COc1cccc(OC[C@H]2CCCN2)c1-c1cc(Nc2cnc(C#N)cn2)n[nH]1` [Example 65, (R)-5-((5-(2-methoxy-6-(pyrrolidin-2-ylmethoxy)phenyl)-1H-pyrazol-3-yl)amino)pyrazine-2-carbonitrile], the values for the IC50 (on CHK1 kinase; in assay [1]; in assay [2]) were 0.26 nM, 11.9 nM and 7.3 nM, respectively.

Take `Cc1cc(F)c(-c2cc(Nc3cnc(C#N)cn3)n[nH]2)c(OC[C@H]2CCCNC2)c1` [Example 63, (S)-5-((5-(2-fluoro-4-methyl-6-(piperidin-3-ylmethoxy)phenyl)-1H-pyrazol-3-yl)amino)pyrazine-2-carbonitrile]: the figures for the IC50 (on CHK1 kinase; in assay [1]; in assay [2]) were 1.66 nM, 52.6 nM and 40.2 nM, respectively.

With `N#Cc1cnc(Nc2cc(-c3c(OC[C@@H]4CNCCO4)cccc3OC(F)(F)F)[nH]n2)cn1` [Example 20, (S)-5-((5-(2-(morpholin-2-ylmethoxy)-6-(trifluoromethoxy)phenyl)-1H-pyrazol-3-yl)amino)pyrazine-2-carbonitrile], the inhibition at 0.01 µM on CHK1 kinase was determined as 31%. Besides, the IC50 in assay [1] is 995 nM; in assay [2] it was greater than 1000 nM.

As for `Cc1cc(F)c(-c2cc(Nc3cnc(C#N)cn3)n[nH]2)c(OC[C@H]2CCNC2)c1` [Example 62, (S)-5-((5-(2-fluoro-4-methyl-6-(pyrrolidin-3-ylmethoxy)phenyl)-1H-pyrazol-3-yl)amino)pyrazine-2-carbonitrile], the IC50 on CHK1 kinase was 1.58 nM; in assay [1] it was 21.6 nM; in assay [2] it was 18 nM.

As for `N#Cc1cnc(Nc2cc(-c3c(Cl)cccc3OC[C@H]3CCCNC3)[nH]n2)cn1` [Example 47, (S)-5-((5-(2-chloro-6-(piperidin-3-ylmethoxy)phenyl)-1H-pyrazol-3-yl)amino)pyrazine-2-carbonitrile], at CHK1 kinase, the inhibition at 0.01 µM amounted to 40%. Besides, the values for the IC50 in assay [1] and in assay [2] were 381 nM and 533 nM, respectively.

For the compound `COc1cc(Br)cc(OC[C@H]2CCCNC2)c1-c1cc(Nc2cnc(C#N)cn2)n[nH]1` [Example 41, (S)-5-((5-(4-bromo-2-methoxy-6-(piperidin-3-ylmethoxy)phenyl)-1H-pyrazol-3-yl)amino)pyrazine-2-carbonitrile], the figures for the IC50 (on CHK1 kinase; in assay [1]; in assay [2]) were 0.85 nM, 4.4 nM and 5.1 nM, respectively.

Turning to `N#Cc1cnc(Nc2cc(-c3c(F)cc(Br)cc3OC[C@H]3CCCNC3)[nH]n2)cn1` [Example 59, (S)-5-((5-(4-bromo-2-fluoro-6-(piperidin-3-ylmethoxy)phenyl)-1H-pyrazol-3-yl)amino)pyrazine-2-carbonitrile], the IC50 stood at 2.27 nM at CHK1 kinase, 60 nM in assay [1] and 60.8 nM in assay [2].

As to `COc1cc(F)cc(OC[C@H]2CCNC2)c1-c1cc(Nc2cnc(C#N)cn2)n[nH]1` [Example 39, (S)-5-((5-(4-fluoro-2-methoxy-6-(pyrrolidin-3-ylmethoxy)phenyl)-1H-pyrazol-3-yl)amino)pyrazine-2-carbonitrile], the values for the IC50 (on CHK1 kinase; in assay [1]; in assay [2]) were 0.2 nM, 1 nM and 1 nM, respectively.

As for `COc1cc(C)cc(OC[C@H]2CCCNC2)c1-c1cc(Nc2cnc(C#N)cn2)n[nH]1` [Example 43, (S)-5-((5-(2-methoxy-4-methyl-6-(piperidin-3-ylmethoxy)phenyl)-1H-pyrazol-3-yl)amino)pyrazine-2-carbonitrile], the IC50 stood at 1.17 nM at CHK1 kinase, 1.6 nM in assay [1] and 1.6 nM in assay [2].

For `COc1cccc(OC[C@H]2CCCNC2)c1-c1cc(Nc2ccc(C#N)nn2)n[nH]1` [Example 25, (S)-6-((5-(2-methoxy-6-(piperidin-3-ylmethoxy)phenyl)-1H-pyrazol-3-yl)amino)pyridazine-3-carbonitrile], the inhibition at 0.01 µM on CHK1 kinase came out at 91%. Also, the values for the IC50 in assay [1] and in assay [2] were 113 nM and 104 nM, respectively.

As for `COc1cc(Cl)cc(OC[C@H]2CCNC2)c1-c1cc(Nc2cnc(C#N)cn2)n[nH]1` [Example 68, (S)-5-((5-(4-chloro-2-methoxy-6-(pyrrolidin-3-ylmethoxy)phenyl)-1H-pyrazol-3-yl)amino)pyrazine-2-carbonitrile], the IC50 on CHK1 kinase stood at 0.44 nM; in assay [1], 2.8 nM; in assay [2] it was 2.3 nM.

Regarding `COc1cc(C(F)(F)F)cc(OC[C@@H]2CNCCO2)c1-c1cc(Nc2cnc(C#N)cn2)n[nH]1` [Example 19, (S)-5-((5-(2-methoxy-6-(morpholin-2-ylmethoxy)-4-(trifluoromethyl)phenyl)-1H-pyrazol-3-yl)amino)pyrazine-2-carbonitrile], the inhibition at 0.01 µM at CHK1 kinase came out at 91%. Moreover, the results for the IC50 in assay [1] and in assay [2] were 31.4 nM and 31.2 nM, respectively.

With `COc1cccc(OC[C@H]2CNCCS2)c1-c1cc(Nc2cnc(C#N)cn2)n[nH]1` [Example 76-B, (R)-5-((5-(2-methoxy-6-(thiomorpholin-2-ylmethoxy)phenyl)-1H-pyrazol-3-yl)amino)pyrazine-2-carbonitrile], the IC50 was 1.21 nM at CHK1 kinase, 18.5 nM in assay [1] and 17.8 nM in assay [2].

For `N#Cc1cnc(Nc2cc(-c3c(F)cccc3OCC3CNC3)[nH]n2)cn1` [Example 53, 5-((5-(2-(azetidin-3-ylmethoxy)-6-fluorophenyl)-1H-pyrazol-3-yl)amino)pyrazine-2-carbonitrile], the inhibition at 0.01 µM at CHK1 kinase was determined as 95%. For the same compound, the IC50 in assay [1] came to 89.4 nM; in assay [2], 72 nM.

Take `N#Cc1cnc(Nc2cc(-c3c(F)cc(F)cc3OC[C@H]3CCCNC3)[nH]n2)cn1` [Example 56, (S)-5-((5-(2,4-difluoro-6-(piperidin-3-ylmethoxy)phenyl)-1H-pyrazol-3-yl)amino)pyrazine-2-carbonitrile]: the IC50 was 1.02 nM at CHK1 kinase, 27.4 nM in assay [1] and 22.3 nM in assay [2].

With `COc1cnc(Nc2cc(-c3c(OC)cccc3OC[C@H]3CCCNC3)[nH]n2)cn1` [Example 26, (S)-5-methoxy-N-(5-(2-methoxy-6-(piperidin-3-ylmethoxy)phenyl)-1H-pyrazol-3-yl)pyrazin-2-amine], at CHK1 kinase, the inhibition at 0.01 µM was 93%. In addition, the IC50 is 118 nM in assay [1] and 103 nM in assay [2].
